Reference: US9409893B2, “Heteroaryl derivatives and uses thereof” (Jacobus Pharmaceutical Company, Inc., priority 2012, dated 2016)

Biological target: hERG potassium channel (Homo sapiens, UniProt Q12809)
Assay: Whole cell patch clamp of cloned hERG potassium channels expressed in HEK293 cells
Type: cell-based
Details: for IC50: patch clamp, read-out: IC50 for the inhibitory effect on hERG potassium current
Text: For in vitro testing, the functional hERG assay using conventional patch clamp electrophysiology is considered the gold standard for assessment of drug interactions with the hERG potassium channel (Yao et al., Br. J. Pharmacol. 2008, 154, 1446-1456). In this assay, hERG channels are expressed in a human embryonic kidney (HEK293) cell line that lacks endogenous IKr.
The objective of this study was to examine the in vitro effects of test articles on the hERG (human ether-à-go-go-related gene) potassium channel current (a surrogate for IKr, the rapidly activating delayed rectifier cardiac potassium current).
All chemicals used in solution preparation were purchased from Sigma-Aldrich (St. Louis, Mo.) unless otherwise noted and were of ACS reagent grade purity or higher. Stock solutions of the test article and the positive control were prepared in dimethyl sulfoxide (DMSO) and stored frozen. Test article and positive control concentrations were prepared fresh daily by diluting stock solutions into a HEPES-buffered physiological saline (HB-PS) solution (composition in mM): NaCl, 137; KCl, 4.0; CaCl2, 1.8; MgCl2, 1; HEPES, 10; Glucose, 10; pH adjusted to 7.4 with NaOH (prepared weekly and refrigerated until use).
HEK/hERG • Organism: Homo sapiens • Designation: 293 • Tissue: Kidney; Transformed with adenovirus 5 DNA; Transfected with human-ether-a-go-go cDNA • Morphology: Epithelial • Age Stage Embryo • Source Strain: ATCC, Manassas, Va. • Source Substrain ChanTest Corporation, Cleveland, Ohio
HEK293 cells were stably transfected with hERG cDNA. Stable transfectants were selected by coexpression with the G418-resistance gene incorporated into the expression plasmid. Selection pressure was maintained by including G418 in the culture medium. Cells were cultured in Dulbecco's Modified Eagle Medium/Nutrient Mixture F-12 (D-MEM/F-12) supplemented with 10% fetal bovine serum, 100 U/mL penicillin G sodium, 100 μg/mL streptomycin sulfate and 500 μg/mL G418.
All experiments were performed at room temperature. Each cell acted as its own control.
Experiments were performed as outlined in the section entitled Experimental Procedures. Concentrations were selected to evaluate the concentration-response relationship of each test article based on the initial results or the solubility limits in vehicle. Each concentration was tested in at least three cells (n≧3).
Cells were transferred to the recording chamber and superfused with vehicle control solution. Micropipette solution for whole cell patch clamp recordings was composed of (mM): potassium aspartate, 130; MgCl2, 5; EGTA, 5; ATP, 4; HEPES, 10; pH adjusted to 7.2 with KOH. Pipette solution was prepared in batches, aliquoted, stored frozen, and a fresh aliquot was thawed each day. Patch pipettes were made from glass capillary tubing using a P-97 micropipette puller (Sutter Instruments, Novato, Calif.). A commercial patch clamp amplifier was used for whole cell recordings. Before digitization, current records were low-pass filtered at one-fifth of the sampling frequency.
Onset and steady state inhibition of hERG current was measured using a pulse pattern with fixed amplitudes (conditioning prepulse: +20 mV for 2 s; test pulse: −50 mV for 2 s) repeated at 10 s intervals, from a holding potential of −80 mV. Peak tail current was measured during the 2 s step to −50 mV.
Each test article at 10 μM was applied to at least 3 cells (n≧3).
One or more test article concentrations were applied sequentially (without washout between test substance concentrations) in ascending order, to each cell (n≧3). A steady state was maintained for at least 30 s before applying test article or positive control. Peak current was measured until a new steady state was achieved.
Steady state was defined by the limiting constant rate of change with time (linear time dependence). The steady state before and after test article application was used to calculate the percentage of current inhibited at each concentration. […]

[1] = human, HEK293 cells stably expressing hERG, pH 7.4, HEK293/hERG, room temperature, read-out: Mean percentage of hERG current inhibited

Sequence of hERG potassium channel (Q12809 whole entry): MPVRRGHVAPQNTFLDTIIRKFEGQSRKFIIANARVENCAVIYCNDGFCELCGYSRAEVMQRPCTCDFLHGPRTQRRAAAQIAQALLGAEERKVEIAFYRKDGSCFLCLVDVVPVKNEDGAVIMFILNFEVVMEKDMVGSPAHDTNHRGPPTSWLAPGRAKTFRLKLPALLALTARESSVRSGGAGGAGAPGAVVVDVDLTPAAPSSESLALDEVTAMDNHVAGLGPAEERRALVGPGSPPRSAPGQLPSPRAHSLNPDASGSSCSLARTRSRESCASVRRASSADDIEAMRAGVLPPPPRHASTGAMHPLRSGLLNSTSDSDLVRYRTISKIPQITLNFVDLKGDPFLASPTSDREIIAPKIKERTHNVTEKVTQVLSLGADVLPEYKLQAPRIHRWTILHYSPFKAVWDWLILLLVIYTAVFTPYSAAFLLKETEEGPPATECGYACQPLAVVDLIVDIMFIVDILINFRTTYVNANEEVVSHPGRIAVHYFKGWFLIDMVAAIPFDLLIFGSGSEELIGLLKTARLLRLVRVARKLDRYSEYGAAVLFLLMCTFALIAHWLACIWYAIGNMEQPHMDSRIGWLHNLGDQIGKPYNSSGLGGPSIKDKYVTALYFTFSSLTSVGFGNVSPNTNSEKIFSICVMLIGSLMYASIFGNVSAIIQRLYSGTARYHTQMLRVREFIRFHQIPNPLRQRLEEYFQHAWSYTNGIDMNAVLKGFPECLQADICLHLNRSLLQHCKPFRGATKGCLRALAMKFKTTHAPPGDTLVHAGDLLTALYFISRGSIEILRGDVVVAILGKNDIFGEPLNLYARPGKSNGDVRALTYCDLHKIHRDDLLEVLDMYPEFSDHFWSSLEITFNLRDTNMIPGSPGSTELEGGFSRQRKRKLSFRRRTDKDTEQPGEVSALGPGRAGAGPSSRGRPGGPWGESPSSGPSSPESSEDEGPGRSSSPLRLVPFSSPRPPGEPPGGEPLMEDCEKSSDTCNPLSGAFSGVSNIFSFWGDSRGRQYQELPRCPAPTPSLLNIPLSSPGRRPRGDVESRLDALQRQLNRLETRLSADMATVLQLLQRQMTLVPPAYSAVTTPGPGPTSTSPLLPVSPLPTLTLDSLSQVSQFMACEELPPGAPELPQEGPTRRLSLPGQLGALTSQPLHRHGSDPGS

## CC(C)(C)NCc1cc(C(C)(C)C)cc(-c2ccc(C(F)(F)F)nc2)c1O.Cl [Example 1, 4-(tert-Butyl)-2-((tert-butylamino)methyl)-6-(6-(trifluoromethyl)pyridin-3-yl)phenol hydrochloride]
HEK293/hERG
  IC50: 9.8 µM
Fit of concentration-response data
  Hill coefficient of hERG inhibition: 1.4
[1]
  inhibition at 3 µM: 18.4%
  inhibition at 10 µM: 48.5%
  inhibition at 30 µM: 84%
human, HEK293 cells stably expressing hERG, pH 7.4, 100 μM, HEK293/hERG, room temperature, read-out: Mean percentage of hERG current inhibited
  inhibition at 100 µM: 98.2%

## CC(C)(C)NCc1cc(C(C)(C)C)cc(-c2cnc(C(F)(F)F)c(F)c2)c1O.Cl [Example 34, 4-(tert-Butyl)-2-((tert-butylamino)methyl)-6-(5-fluoro-6-(trifluoromethyl)pyridin-3-yl)phenol hydrochloride]
HEK293/hERG
  IC50: > 10 µM
human, HEK293 cells stably expressing hERG, pH 7.4, 1 μM, HEK293/hERG, room temperature, read-out: Mean percentage of hERG current inhibited
  inhibition at 1 µM: 2.6%
[1]
  inhibition at 3 µM: 11.3%
  inhibition at 10 µM: 15.9%

## CC(C)(C)NCc1cc(C(C)(C)C)cc(-c2cnc(C(F)(F)F)nc2)c1O.Cl [Example 33, 4-(tert-Butyl)-2-((tert-butylamino)methyl)-6-(2-(trifluoromethyl)pyrimidin-5-yl)phenol hydrochloride]
HEK293/hERG
  IC50: > 10 µM
[1]
  inhibition at 3 µM: 4.1%
  inhibition at 10 µM: 12.9%
  inhibition at 30 µM: 24.3%
